Entries after “also recorded” stand apart in the source; their conditions may differ.
Tests used:
Format in all cases: cell-based, human
iPSC-RPE [1] = experiment: Scanning electron microscopy of apical processes; conditions: SEM; for apical processes average transversal length / apical processes average transversal width: transversal section; for type of apical processes: DMSO control shows both petal and finger-like
Description: FIG. 11. Defining petal (undulated) and finger-like apical processes. The transversal section of apical processes was measured to precisely define their shape. Petal-like apical processes, obtained by treating RPE cells with AGN 193109, have an average transversal length of 1.68 μm (length min 0.5, max 4 μm) and width of 0.20 μm (width min 0.1, max 1 μm). The petal-like apical processes are also wavy along their length. The width of the undulation ranges from 0.2 to 2 μm. Finger-like apical processes, obtained by treating RPE cells with endo-IWR-1, are cylindrical and have the same average transversal length and width of 0.23 μm (min 0.1, max 1 microns). An example of how measurements of the apical processes was done is shown for each type of apical processed.
(§1) Different techniques were used to study RPE morphologic features.
Finally, transmission electron microscopy (TEM) was used to detect fine morphological alterations, whereas scanning electron microscopy (SEM) was essential to study modifications in apical processes structures. […] In DMSO-treated iPSC-RPE we found both types of apical processes, petal and finger-like.

iPSC-RPE [2] = experiment: Phenotypic characterization of selected drug treatments (TER, brightfield, H&E, TEM, SEM); conditions: for induced RPE phenotype: cell size and apical processes; for effect on iPSC-RPE health: verified by TER, brightfield, H&E and TEM
Source text: Eleven compounds were selected for further phenotypic characterization based on their initial effect in RPE cell size. […] Because the macula is dominated by cones while the periphery is dominated by rods, RPE cells in these two different regions might be enriched in one of the two apical process structures. It was hypothesized that the phenotype of RPE apical processes will serve as an additional discriminatory factor, other than RPE morphometry.
as §1
Starting at D21, iPSC-RPE were treated with the different compounds. At D40 immature RPE were enriched by negative selection, as per differentiation protocol, and seeded on transwells for maturation. iPSC-RPE were treated with the compounds for other 6 weeks until cells were fully mature (FIG. 1 and FIG. 11).

iPSC-RPE [3] = experiment: Hematoxylin and eosin staining, gross morphology of the monolayer; conditions: H&E, AGN 193109 0.2 μM, endo-IWR-1 4 uM
Description: Brightfield imaging was used to determine RPE pigmentation defects, while hematoxylin and eosin (H&E) staining was valuable to inspect gross morphologic alterations of the monolayer. A section of transwell membrane was cut and mounted on a glass slide for brightfield imaging. Pigmentation levels were preserved after ENDO-1-IWR and AGN 193109 treatments as compared to DMSO-treated iPSC-RPE.
AGN 193109 was used at 0.2 μM and endo-IWR-1 at 4 uM. Both drugs were dissolved in DMSO, so that the final concentration of DMSO was not more than 0.1%. The final concentration of DMSO control was 0.1%. The compounds were added in RPE maturation medium until cells were mature. Gross cell morphology was also analyzed (FIGS. 20B, 20D, and 20F, left image) to detect possible abnormalities. Fine intracellular structures were examined for alterations with transmission electron microscopy (TEM, FIGS. 20B, 20D, and 20F, right image).

iPSC-RPE [4] = experiment: Shape metrics (cell area) of drug-treated fully mature iPSC-RPE on transwells; conditions: treated from D21 until fully mature; for iPSC-RPE area: transwells; for iPSC-RPE cell size compared with human RPE populations: reference P1 macular, P3 peripheral
Source text: Segmentation Using Convolutional Network: A Convolutional Neural Network (CNN) algorithm was used to recognize RPE cell borders from images of samples labeled by immunofluorescence. The algorithm generates a binary mask of segmented RPE borders; and this output was manually corrected to provide the “right answer” on which the algorithm would learn. Once trained, the CNN algorithm was fed with images of fluorescently labeled RPE cells and the binary mask images that were generated become the input for the REShAPE software for cell shape analysis (FIG. 3).
Morphometric Analysis Using REShAPE: The binary segmentation produced by the CNN algorithm was transferred to REShAPE for cell shape analysis. REShAPE (Retinal Epithelium Shape and Pigment Evaluator) is a Fiji plugin for image analysis. For every cell in a field of view that has been successfully segmented, REShAPE provide quantification of more than 25 different shape metrics. The raw data was stored in a spreadsheet to allow for statistical analysis. In addition, the software created images of segmented cells for every metric analyzed, where every cell is color-coded according to the raw values (FIG. 4). The color-coded images display the location of the cells analyzed. The shape metrics were analyzed with the software to give measurements of cell dimensions, such as area and perimeter, measurements of elongation, such as length of major and minor axis, and measurements of cell regularity, such as hexagonality score and number of neighbors. The analysis was performed in pixel units or μm, as far as the pixel to μm conversion is provided. The analysis of data and the graphs have been done using R software (“R Core Team (2018). R: A language and environment for statistical computing. R Foundation for Statistical Computing, Vienna, Austria. URL https://www.R-project.org/”). The R packages “plyr” and “ggplot2” have been use for data handling and plotting respectively (Wickham, 2009, 2011). The Dunnett's test, a method for post hoc pairwise multiple comparisons, was used to compute statistical analysis by comparing several treatment groups to control groups. A 95% family-wise confidence level has been used. […] Shapiro-Wilk's test and one-way ANOVA were carried out using the R package “dplyr” (Wickham et al., dplyr: A Grammar of Data Manipulation. Retrieved from https://cran.r-project.org/package=dplyr, 2019), while Q-Q plots were drawn using the R package “ggpubr” (Kassambara, ggpubr: “ggplot2” Based Publication Ready Plots. Retrieved from cran.r-project.org/package=ggpubr, 2020). […]
Subsequently, shape metrics were analyzed to confirm the effect of the drugs on cell areas. […]

Cc1ccc(C2=CCC(C)(C)c3ccc(C#Cc4ccc(C(=O)O)cc4)cc32)cc1 [AGN 193109, 4-[2-[5,6-Dihydro-5,5-dimethyl-8-(4-methylphenyl)-2-naphthalenyl]ethynyl]-benzoic acid]
apical processes average transversal length (iPSC-RPE [1]): 1.68 μm
apical processes average transversal width (iPSC-RPE [1]): 0.20 μm
type of apical processes (iPSC-RPE [1]): enriched RPE cells with petal-like apical processes (with undulation); also recorded: enrich RPE cells with petal-like and finger-like apical processes, respectively
induced RPE phenotype (iPSC-RPE [2]): induces a macular RPE phenotype
effect on iPSC-RPE health (iPSC-RPE [2]): not disruptive of iPSC-RPE health; also recorded: did not affect the healthy RPE phenotype
gross cell morphology (iPSC-RPE [3]): no gross morphological alterations were detected; also recorded: nor did they affect gross or fine cell morphology
iPSC-RPE area (iPSC-RPE [4]): 161.8±149.7 μm^2
iPSC-RPE cell size compared with human RPE populations (iPSC-RPE [4]): comparable to the dimension of macular RPE population (P1); also recorded: shifts iPSC-RPE cell sizes toward macular RPE population (P1); also recorded: able to reproduce the cellular size of macular population (P1) and peripheral population (P3) respectively

O=C(Nc1cccc2cccnc12)c1ccc(N2C(=O)C3C4C=CC(C4)C3C2=O)cc1 (stereo not drawn) [ENDO-1-IWR, 4-(1,3,3a,4,7,7a-Hexahydro-1,3-dioxo-4,7-methano-2H-isoindol-2-yl)-N-8-quinolinyl-Benzamide]
apical processes average transversal length (iPSC-RPE [1]): 0.23 μm
apical processes average transversal width (iPSC-RPE [1]): 0.23 μm
type of apical processes (iPSC-RPE [1]): enriched uniquely by finger-like apical processes; also recorded: enrich RPE cells with petal-like and finger-like apical processes, respectively; also recorded: enriches these cells with finger-like apical processes
type of apical processes (iPSC-RPE [1]; listed as Endo-IWR-1): enriched cells with finger-like apical processes
induced RPE phenotype (iPSC-RPE [2]): induces a peripheral RPE phenotype
effect on iPSC-RPE health (iPSC-RPE [2]): not disruptive of iPSC-RPE health; also recorded: did not affect the healthy RPE phenotype
gross cell morphology (iPSC-RPE [3]): no gross morphological alterations were detected
gross cell morphology (iPSC-RPE [3]; listed as endo-IWR-1): nor did they affect gross or fine cell morphology
iPSC-RPE area (iPSC-RPE [4]): 251.8±218.4 μm^2
iPSC-RPE cell size compared with human RPE populations (iPSC-RPE [4]): comparable to cells of peripheral RPE population P3; also recorded: increases cell sizes up to the dimensions of the peripheral RPE population P3; also recorded: able to reproduce the cellular size of macular population (P1) and peripheral population (P3) respectively; also recorded: increases RPE cell size to match human peripheral RPE population P3

Reference: patent US20240261474A1, “BIODEGRADABLE TISSUE SCAFFOLD WITH SECONDARY MATRIX TO HOST WEAKLY ADHERENT CELLS” (THE U.S.A., as represented by the Secretary, Department of …, priority 2021, published 2024)
